{"source": "patent US8252958B2", "about": "“Use of guanabenz and its derivatives for making drugs for treating cystic fibrosis and diseases related to a protein addressing deficiency in the cells” (Centre National de la Recherche Scientifique (CNRS), priority 2006, dated 2012)", "key": {"delF508-CFTR [1]": {"target": "T1, delF508-CFTR (Homo sapiens, UniProt P13569, DEL508-508)", "T1 construct": "The CF15 cells are human epithelial cells of nasal origin which express the ΔF508-CFTR gene; endogenous in cells; host or cells: CF15 human airway epithelial cells (F508del/F508del)", "T1 sequence (P13569 with tags, fused parts or gaps DEL508-508)": "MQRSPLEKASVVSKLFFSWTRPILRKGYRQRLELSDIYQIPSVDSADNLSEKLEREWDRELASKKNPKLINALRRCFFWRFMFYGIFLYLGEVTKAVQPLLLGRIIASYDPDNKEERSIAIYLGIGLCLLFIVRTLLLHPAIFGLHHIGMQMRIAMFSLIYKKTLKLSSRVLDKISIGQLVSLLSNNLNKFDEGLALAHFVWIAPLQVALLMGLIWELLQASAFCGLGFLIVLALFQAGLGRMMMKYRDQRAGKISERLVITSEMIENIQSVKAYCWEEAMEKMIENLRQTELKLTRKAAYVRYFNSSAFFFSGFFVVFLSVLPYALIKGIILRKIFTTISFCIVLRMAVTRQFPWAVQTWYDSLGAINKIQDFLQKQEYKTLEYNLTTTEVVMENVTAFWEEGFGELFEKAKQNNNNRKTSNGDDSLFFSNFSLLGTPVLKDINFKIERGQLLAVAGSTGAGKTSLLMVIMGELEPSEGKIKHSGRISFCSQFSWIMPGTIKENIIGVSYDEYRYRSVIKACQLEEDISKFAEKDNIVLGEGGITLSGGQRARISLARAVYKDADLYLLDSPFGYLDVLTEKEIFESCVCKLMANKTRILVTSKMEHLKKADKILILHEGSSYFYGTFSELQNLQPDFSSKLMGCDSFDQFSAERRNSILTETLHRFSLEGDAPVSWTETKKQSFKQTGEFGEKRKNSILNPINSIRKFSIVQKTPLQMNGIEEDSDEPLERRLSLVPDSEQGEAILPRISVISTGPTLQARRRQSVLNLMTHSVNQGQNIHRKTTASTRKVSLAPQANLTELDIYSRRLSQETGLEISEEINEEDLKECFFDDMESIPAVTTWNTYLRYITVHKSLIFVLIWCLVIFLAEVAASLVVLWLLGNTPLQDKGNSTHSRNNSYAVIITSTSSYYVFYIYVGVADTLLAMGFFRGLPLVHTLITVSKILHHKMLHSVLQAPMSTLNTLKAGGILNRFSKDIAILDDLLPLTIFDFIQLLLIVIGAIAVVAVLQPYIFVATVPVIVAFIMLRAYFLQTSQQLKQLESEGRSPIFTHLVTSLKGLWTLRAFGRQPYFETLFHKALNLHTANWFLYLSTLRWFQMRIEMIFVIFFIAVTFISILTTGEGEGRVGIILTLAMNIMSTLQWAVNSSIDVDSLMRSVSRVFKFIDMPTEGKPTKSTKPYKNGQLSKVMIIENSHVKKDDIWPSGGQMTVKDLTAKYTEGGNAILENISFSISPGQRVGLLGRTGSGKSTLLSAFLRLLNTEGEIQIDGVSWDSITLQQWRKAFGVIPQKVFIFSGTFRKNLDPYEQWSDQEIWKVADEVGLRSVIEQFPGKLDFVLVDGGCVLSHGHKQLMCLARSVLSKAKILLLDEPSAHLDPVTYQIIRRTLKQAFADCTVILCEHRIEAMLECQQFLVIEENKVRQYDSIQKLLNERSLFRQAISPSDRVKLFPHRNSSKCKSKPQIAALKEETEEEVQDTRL", "test": "Iodide efflux (radiotracer) after 2 h treatment of CF15 cells, forskolin activation", "type": "cell-based"}, "delF508-CFTR [2]": {"target": "T1, delF508-CFTR", "test": "Competition experiments by the iodide efflux technique between guanabenz and the chaperone machinery of the ER", "type": "cell-based", "protocol": "The measurements of chloride ion transport in the cells were performed with the aid of the radioactive iodide efflux technique (Becq et al., 1999; Dormer et al., 2001). The tracer (^125I) is incorporated into the intracellular medium. Next, the quantity of radiotracer which leaves the cell is counted after the addition of various pharmacological agents. The iodide is used as chloride ion transport tracer. ^125I further has the advantage of having a short life compared with that of other markers such as […] (respective ½ life: […] and 300 000 years).\nThe cells are cultured on 24-well plates in a suitable medium. Two rinses with efflux medium (NaCl: 136.6 mM, KCl: 5.4 mM, KH2PO4: 0.3 mM, NaH2PO4: 0.3 mM, NaHCO3: 4.2 mM, CaCl2: 1.3 mM, MgCl2: 0.5 mM, MgSO4: 0.4 Mm, HEPES: 10 mM, D-glucose: 5.6 mM) are performed in order to remove the dead cells which anarchically release radioactivity. Next, the cells are incubated with 500 μl of load (1 μCi/ml of ^125INa) for 30 min for the CHO-WT cells or 1 h for the CF15 and Calu-3 cells. The iodide forms an equilibrium on either side of the cell membrane. The robot (MultiPROBE, Packard) carries out the following steps: the load medium is rinsed with efflux medium in order to remove the extracellular radioactivity. The supernatant is collected every minute in hemolysis tubes and the medium is replaced with an equivalent volume (500 μl). No drug is added to the samples collected for the first 3 minutes, they make it possible to obtain a stable baseline, characterizing the passive outflow of the I ions. […] At the end of the experiment, the cells are lysed by adding 500 μl of NaOH (0.1N)/0.1% SDS (30 min), thus the radioactivity remaining inside the cell can be determined. The radioactivity present in the hemolysis tubes is counted in counts per minute (cpm) using a gamma counter (Cobra II, Packard). […] In order to quantify the outflow of iodide due to the administration of the test molecule, the following relative flow is calculated, which makes it possible to dispense with the basal flow: relative speed (min^−1)=Rpic−Rbasal. […]"}}}
{"smiles": "N=C(N)N/N=C/c1c(Cl)cccc1Cl", "note": "[guanabenz]", "values": [{"measurement": "readdressing of the mutated protein F508del-CFTR to the membrane", "setting": "delF508-CFTR [1]; CF15 cells (F508del/F508del) treated with guanabenz", "value": "allows readdressing of the mutated protein F508del-CFTR to the membrane"}, {"measurement": "EC50", "setting": "delF508-CFTR [1]; CF15 cells, 2 h of treatment, iodide efflux, read-out: EC50 of readdressing of the protein F508del-CFTR", "value": 40, "unit": "µM"}, {"measurement": "effect of guanabenz in the presence of Brefeldine-A (BFA)", "setting": "delF508-CFTR [2]; BFA, inhibitor of vesicular ERGIC traffic", "value": "inhibition of the effect of guanabenz"}, {"measurement": "effect of guanabenz in the presence of MG132", "setting": "delF508-CFTR [2]; MG132, proteasome inhibitor", "value": "No modulation of the effect of guanabenz"}, {"measurement": "effect of guanabenz in the presence of swainsonine", "setting": "delF508-CFTR [2]; swainsonine, mannosidase inhibitor", "value": "low potentiation of the effect of guanabenz"}]}
